Literature values in patent publication US20060252738A1, “Method for preparing and using water-based steroid pheromone compositions” (Phero Tech Inc., priority 2005, published 2006).

Experiments:
[1] = tested on: sows; settings: pigs; Reed et al. (1974)
[2] = tested on: sows that have reached oestrus; settings: for function in place of boar saliva: pressurized aerosol sprays in organic solvents, sows that have reached oestrus, Melrose et al. 1971

| SMILES | bioactivity as diagnostic tool relative to androstenone [1] | effective dose ([2]; established by Melrose et al. (1972)) [µg] | function in place of boar saliva [2] |
| --- | --- | --- | --- |
| C[C@@]12CCC[C@H]1[C@@H]1CC[C@H]3CC(=O)CC[C@]3(C)[C@H]1CC2 [5α-androstan-3-one] | less effective |  |  |
| C[C@]12CC[C@H](O)C[C@@H]1CC[C@@H]1[C@@H]2CC[C@]2(C)C=CC[C@@H]12 [3β-hydroxy-5α-androst-16-ene] | less effective |  |  |
| C[C@@]12C=CC[C@H]1[C@@H]1CCC3=CC(=O)CC[C@]3(C)[C@H]1CC2 [andrsost-4,16-dien-3-one] | comparable |  |  |
| C[C@]12CCC(=O)C[C@H]1CC[C@@H]1[C@@H]2CC[C@]2(C)C=CC[C@@H]12 [5β-androst-16-en-3-one] | comparable |  |  |
| C[C@]12CCC(=O)C[C@@H]1CC[C@@H]1[C@@H]2CC[C@]2(C)C=CC[C@@H]12 [androstenone, 5α-androst-16-en-3-one] |  | 2 to 20 | inducing an immobile mating stance |
| C[C@]12CC[C@@H](O)C[C@@H]1CC[C@@H]1[C@@H]2CC[C@]2(C)C=CC[C@@H]12 [androstenol, 3α-hydroxy-5a-androst-16-ene] |  |  | inducing an immobile mating stance |
